For 66 molecules, LC retention time results are on record in the RepoRT retention time repository (doi:10.1007/s00216-015-8540-6).

Each structure is given as a SMILES string.

The data set in a line: Waters Atlantis T3, 100 × 2.1 mm, 3 µm, 0.1 mL/min, estimated dead time 2.2 min; A: water + 0.01% formic acid; B: methanol + 0.01% formic acid; gradient (min/%B) 0/5 3/5 20/100 29/100. The following applies: stereoisomer not certain.
With `COC(=O)C1C(OC(=O)c2ccccc2)CC2CCC1N2C` (stereo unspecified), the LC retention time is 14.3 min.
As to `CNCCC=C1c2ccccc2CCc2ccccc21`, the LC retention time is 18 min.
In the case of `COc1ccc2c3c1OC1C(O)C=CC4C(C2)N(C)CCC341` (stereo unspecified), the LC retention time was 11.8 min.
`CN(C)CCC=C1c2ccccc2COc2ccccc21`: the LC retention time was 16.7 min.
On to `CC(=O)OC1C=CC2C3Cc4ccc(O)c5c4C2(CCN3C)C1O5` (stereo unspecified), for which the LC retention time was 12.5 min.
The result for `CC1CC2C(C(O)CC3(C)C2CCC3(O)C(=O)CO)C2(C)C=CC(=O)C=C12` (stereo unspecified) reads 21.4 min.
In the case of `CN1CCN2c3ncc(O)cc3Cc3ccccc3C2C1` (stereo unspecified), the LC retention time is 13.6 min.
The result for `CNC(C)Cc1ccc2c(c1)OCO2` (stereo unspecified) reads 13 min.
As for `CCn1cc(C(=O)O)c(=O)c2cc3c(cc21)OCO3`, the LC retention time is 18.3 min.
Take `CN=C(NC#N)NCCSCc1nc[nH]c1C`: the LC retention time is 11.5 min.
The result for `Cc1cc2c(s1)Nc1ccccc1N=C2N1CCN(C)CC1` reads 12.6 min; that for `CC(=O)Nc1ccc(O)cc1`, 13.3 min.
Take `CC1(C)OC2COC3(COS(N)(=O)=O)OC(C)(C)OC3C2O1` (stereo unspecified): the LC retention time is 18.3 min.
With `CC1(C)SC2C(NC(=O)C(N)c3ccc(O)cc3)C(=O)N2C1C(=O)O` (stereo unspecified), the LC retention time was 11.2 min.
As for `COc1cccc(C2(O)CCCCC2CN(C)C)c1` (stereo unspecified), the figure is 14.2 min; as for `CNC(C)C(O)c1ccccc1` (stereo unspecified), 11.7 min; as for `CN(C)C1C(=O)C(C(N)=O)=C(O)C2(O)C(=O)C3=C(O)c4c(O)cccc4C(C)(O)C3C(O)C12` (stereo unspecified), 14.8 min.
On to `NC(=O)N1c2ccccc2C=Cc2ccccc21`, for which the LC retention time is 20.2 min.
Turning to `CN1C2CCC1C(C(=O)O)C(OC(=O)c1ccccc1)C2` (stereo unspecified), the LC retention time was 15.7 min.
As to `CNC(=C[N+](=O)[O-])NCCSCc1ccc(CN(C)C)o1`, the LC retention time was 11.4 min.
For `COc1ccc2nc(S(=O)Cc3ncc(C)c(OC)c3C)[nH]c2c1` (stereo unspecified), the LC retention time was 18.7 min.
`Cn1c([N+](=O)[O-])cnc1COC(N)=O`: the LC retention time is 13.2 min.
On to `Cn1c(=O)c2c(ncn2C)n(C)c1=O`, for which the LC retention time is 15.2 min.
As for `CC(=O)Oc1ccc2c3c1OC1C(OC(C)=O)C=CC4C(C2)N(C)CCC341` (stereo unspecified), the figure is 14.1 min.
As for `CC(N)Cc1ccc2c(c1)OCO2` (stereo unspecified), the figure is 12.9 min; as for `COc1ccc2c3c1OC1C(=O)CCC4(O)C(C2)N(C)CCC314` (stereo unspecified), 12.1 min; as for `CCNC(C)Cc1ccc2c(c1)OCO2` (stereo unspecified), 13.4 min.
In the case of `CN(C)CCCN1c2ccccc2CCc2ccccc21`, the LC retention time is 17.6 min.
As for `Cc1noc(NS(=O)(=O)c2ccc(N)cc2)c1C`, the figure is 14.6 min; as for `CCC(C)(C)C(=O)OC1CC(C)C=C2C=CC(C)C(CCC3CC(O)CC(=O)O3)C21` (stereo unspecified), 27.1 min; as for `CCOc1cc(OC)c(OCC)cc1CC(C)N` (stereo unspecified), 3.15 min.
In the case of `O=C1CN=C(c2ccccc2)c2cc([N+](=O)[O-])ccc2N1`, the LC retention time is 20.4 min.
As to `CC(C)NCC(O)COc1cccc2ccccc12` (stereo unspecified), the LC retention time was 16.2 min.
For `CN(C)CCC=C1c2ccccc2CCc2ccccc21`, the LC retention time was 17.9 min.
Turning to `COc1cc(Cc2cnc(N)nc2N)cc(OC)c1OC`, the LC retention time was 12.9 min.
As to `CCN(CC)CC(=O)Nc1c(C)cccc1C`, the LC retention time was 13.4 min.
As for `CCC(C(N)=O)N1CCCC1=O` (stereo unspecified), the figure is 13.7 min; as for `CCCCCc1cc(O)c2c(c1C(=O)O)OC(C)(C)C1CCC(C)=CC21` (stereo unspecified), 26.9 min.
With `CCN(CC)C(=O)C1C=C2c3cccc4[nH]cc(c34)CC2N(C)C1` (stereo unspecified), the LC retention time was 15.1 min.
In the case of `CC(C(=O)O)c1cccc(C(=O)c2ccccc2)c1` (stereo unspecified), the LC retention time is 21.8 min.
On to `CC12CCC(=O)C=C1CCC1C2C(=O)CC2(C)C1CCC2(O)C(=O)CO` (stereo unspecified), for which the LC retention time was 20 min.
Regarding `CCCCC(=O)N(Cc1ccc(-c2ccccc2-c2nn[nH]n2)cc1)C(C(=O)O)C(C)C` (stereo unspecified), the LC retention time was 24.4 min.
`CC1=C(C(=O)O)N2C(=O)C(NC(=O)C(N)c3ccc(O)cc3)C2SC1` (stereo unspecified): the LC retention time is 11.8 min.
The result for `CC(N)C(O)c1ccccc1` (stereo unspecified) reads 10.9 min; that for `CCC1OC(=O)C(C)C(OC2CC(C)(OC)C(O)C(C)O2)C(C)C(OC2OC(C)CC(N(C)C)C2O)C(C)(OC)CC(C)C(=O)C(C)C(O)C1(C)O` (stereo unspecified), 18.7 min; that for `CN1CCN2c3ncccc3Cc3ccccc3C2C1` (stereo unspecified), 14.6 min.
On to `CCOP(=O)(Sc1ccccc1)Sc1ccccc1`, for which the LC retention time is 16.2 min.
For the molecule `CN(C)C1C(=O)C(C(N)=O)=C(O)C2(O)C(=O)C3=C(O)c4c(O)cccc4C(C)(O)C3CC12` (stereo unspecified), the LC retention time was 14.5 min.
`CC(=O)C1CCC2C3CCC4=CC(=O)CCC4(C)C3CCC12C` (stereo unspecified): the LC retention time is 24.8 min.
With `CN1CCC23c4c5ccc(O)c4OC2C(O)C=CC3C1C5` (stereo unspecified), the LC retention time is 9.52 min.
Take `COC12CCC3(CC1C(C)(O)C(C)(C)C)C1Cc4ccc(O)c5c4C3(CCN1CC1CC1)C2O5` (stereo unspecified): the LC retention time is 16.8 min.
Turning to `CC12CCC(=O)C=C1CCC1C2C(O)CC2(C)C1CCC2(O)C(=O)CO` (stereo unspecified), the LC retention time was 20.6 min.
As to `CC1=C(C(=O)O)N2C(=O)C(NC(=O)C(N)c3ccccc3)C2SC1` (stereo unspecified), the LC retention time is 11.8 min.
The result for `CC(C)NCC(O)COc1ccc(CC(N)=O)cc1` (stereo unspecified) reads 11.3 min; that for `CNC(C)Cc1ccccc1` (stereo unspecified), 12.8 min.
With `CCC(=O)C(CC(C)N(C)C)(c1ccccc1)c1ccccc1` (stereo unspecified), the LC retention time is 17.6 min.
In the case of `Cc1ncc([N+](=O)[O-])n1CCO`, the LC retention time was 13.3 min.
With `COc1ccc(C(CN(C)C)C2(O)CCCCC2)cc1` (stereo unspecified), the LC retention time is 15.7 min.
As for `Cc1nnc(SCC2=C(C(=O)O)N3C(=O)C(NC(=O)Cn4cnnn4)C3SC2)s1` (stereo unspecified), the figure is 17.6 min; as for `CCC1OC(=O)C(C)C(OC2CC(C)(OC)C(O)C(C)O2)C(C)C(OC2OC(C)CC(N(C)C)C2O)C(C)(O)CC(C)CN(C)C(C)C(O)C1(C)O` (stereo unspecified), 18.7 min; as for `COCCc1ccc(OCC(O)CNC(C)C)cc1` (stereo unspecified), 11.2 min.
As for `CCC1(c2ccccc2)C(=O)NCNC1=O`, the figure is 17.1 min.
As for `C=CC1(C)CC(OC(=O)CSCCN(CC)CC)C2(C)C(C)CCC3(CCC(=O)C32)C(C)C1O` (stereo unspecified), the LC retention time is 17.3 min.
On to `CC(N)Cc1ccccc1` (stereo unspecified), for which the LC retention time is 12.6 min.
For the molecule `CCC1OC(=O)CC(O)C(C)C(OC2OC(C)C(OC3CC(C)(O)C(O)C(C)O3)C(N(C)C)C2O)C(CC=O)CC(C)C(=O)C=CC(C)=CC1COC1OC(C)C(O)C(OC)C1OC` (stereo unspecified), the LC retention time is 17.6 min.
Consider `CN(C)C(=N)N=C(N)N`, for which the LC retention time was 3.04 min.
